Results from patent US20110118238A1, “2-ANILINOPURIN-8-ONES AS INHIBITORS OF TTK/MPS1 FOR THE TREATMENT OF PROLIFERATIVE DISORDERS” (ASTRAZENECA AB, priority 2007, published 2011).
pIC50: −log10 of the molar value.

Target: T1, N-terminal GST tagged full length human TTK kinase (Homo sapiens, UniProt P33981)
T1 construct: N-terminal GST tagged full length human TTK kinase; GST (N); made in house; host or cells: insect cells
T1 sequence (P33981 1-857): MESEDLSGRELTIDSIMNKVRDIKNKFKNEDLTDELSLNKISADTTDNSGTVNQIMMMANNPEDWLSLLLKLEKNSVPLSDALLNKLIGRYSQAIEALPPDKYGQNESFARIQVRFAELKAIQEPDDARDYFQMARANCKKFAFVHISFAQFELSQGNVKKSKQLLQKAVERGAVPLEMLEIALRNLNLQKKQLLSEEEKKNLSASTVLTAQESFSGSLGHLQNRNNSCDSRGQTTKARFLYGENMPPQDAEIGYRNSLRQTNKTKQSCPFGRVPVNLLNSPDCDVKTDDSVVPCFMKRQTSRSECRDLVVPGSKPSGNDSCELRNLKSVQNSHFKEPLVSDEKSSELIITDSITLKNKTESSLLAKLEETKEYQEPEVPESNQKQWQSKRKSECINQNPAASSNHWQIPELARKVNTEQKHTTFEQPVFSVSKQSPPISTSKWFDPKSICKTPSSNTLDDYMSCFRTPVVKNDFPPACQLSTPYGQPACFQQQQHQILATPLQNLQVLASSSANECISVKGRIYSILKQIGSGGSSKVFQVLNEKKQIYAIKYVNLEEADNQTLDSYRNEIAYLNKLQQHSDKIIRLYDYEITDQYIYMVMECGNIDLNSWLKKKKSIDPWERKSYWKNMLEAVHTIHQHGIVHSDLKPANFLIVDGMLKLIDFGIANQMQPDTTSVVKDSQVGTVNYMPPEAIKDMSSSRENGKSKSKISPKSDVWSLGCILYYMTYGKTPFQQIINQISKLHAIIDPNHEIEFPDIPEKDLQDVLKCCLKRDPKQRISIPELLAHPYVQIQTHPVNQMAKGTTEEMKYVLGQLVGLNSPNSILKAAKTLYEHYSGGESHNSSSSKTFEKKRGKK
Assay: In Vitro TTK Kinase Assay 2 (Caliper LabChip LC3000)
Assay type: biochemical
Conditions: recombinant TTK, 12 μM ATP, read-out: EAA2: Enzyme Assay Activity (In Vitro TTK kinase assay 2)
Protocol: Each reaction was stopped by the addition of EDTA to a concentration of 40 mM in a solution which also comprised 0.1% coating reagent (Caliper LS), 100 mM HEPES pH 7.5, 0.015% v/v Brij™-35 and 5% DMSO. The stopped enzyme reactions were sipped through capillaries onto a Caliper chip where the peptide substrate and phosphorylated product were separated and detected via laser-induced fluorescence.

| SMILES | pIC50 |
| --- | --- |
| CC(C)n1c(=O)n(C)c2cnc(Nc3ccc(C(=O)NC4CCN(C)CC4)c(F)c3)nc21 [Example 39, 2-Fluoro-4-[(9-isopropyl-7-methyl-8-oxo-8,9-dihydro-7H-purin-2-yl)-amino]-N-(1-methylpiperidin-4-yl)benzamide] | 5.61 |
| COc1cc(C(=O)NC2CCN(C)CC2)ccc1Nc1ncc2c(n1)n(C(C)C)c(=O)n2C [Example 40, 4-[(9-Isopropyl-7-methyl-8-oxo-8,9-dihydro-7H-purin-2-yl)amino]-3-methoxy-N-(1-methylpiperidin-4-yl)benzamide] | 6.47 |
| CNC(=O)c1ccc(Nc2ncc3c(n2)n(C(C)C)c(=O)n3C)c(OC)c1 [Example 41, 4-[(9-Isopropyl-7-methyl-8-oxo-8,9-dihydro-7H-purin-2-yl)amino]-3-methoxy-N-methylbenzamide] | 5.15 |
| COc1cc(OC2CCN(C)CC2)ccc1Nc1ncc2c(n1)n(C(C)C)c(=O)n2C [Example 42, 9-Isopropyl-2-({2-methoxy-4-[(1-methylpiperidin-4-yl)oxy]phenyl}-amino)-7-methyl-7,9-dihydro-8H-purin-8-one] | 7.16 |
| COc1cc(OC2CCN(C)C2)ccc1Nc1ncc2c(n1)n(C(C)C)c(=O)n2C (stereo not shown) [Example 43, 9-Isopropyl-2-({2-methoxy-4-[(1-methylpyrrolidin-3-yl)oxy]-phenyl}amino)-7-methyl-7,9-dihydro-8H-purin-8-one] | 6.94 |
| COc1cc(N2CCN(C)CC2)ccc1Nc1ncc2c(n1)n(C(C)C)c(=O)n2C [Example 44, 9-Isopropyl-2-{[2-methoxy-4-(4-methylpiperazin-1-yl)phenyl]-amino}-7-methyl-7,9-dihydro-8H-purin-8-one] | 6.92 |
| CCN1CCN(c2ccc(Nc3ncc4c(n3)n(C(C)C)c(=O)n4C)c(OC)c2)CC1 [Example 45, 2-{[4-(4-Ethylpiperazin-1-yl)-2-methoxyphenyl]amino}-9-isopropyl-7-methyl-7,9-dihydro-8H-purin-8-one] | 6.96 |
| CCOc1cc(N2CCN(C)CC2)ccc1Nc1ncc2c(n1)n(C(C)C)c(=O)n2C [Example 46, 2-{[2-Ethoxy-4-(4-methylpiperazin-1-yl)phenyl]amino}-9-isopropyl-7-methyl-7,9-dihydro-8H-purin-8-one] | 6.84 |
| COc1cc(N2CCCN(C)CC2)ccc1Nc1ncc2c(n1)n(C(C)C)c(=O)n2C [Example 48, 9-Isopropyl-2-{[2-methoxy-4-(4-methyl-1,4-diazepan-1-yl)phenyl]-amino}-7-methyl-7,9-dihydro-8H-purin-8-one] | 6.87 |
| COc1cc(C(=O)O)ccc1Nc1ncc2c(n1)n(C1CCCC1)c(=O)n2C [Example 49, 4-[(9-Cyclopentyl-7-methyl-8-oxo-8,9-dihydro-7H-purin-2-yl)-amino]-3-methoxybenzoic acid] | 7.14 |
| COc1cc(C(=O)N2CCN(C3CCN(C)CC3)CC2)ccc1Nc1ncc2c(n1)n(C1CCCC1)c(=O)n2C [Example 51, 9-Cyclopentyl-2-[(2-methoxy-4-{[4-(1-methylpiperidin-4-yl)-piperazin-1-yl]-carbonyl}phenyl)amino]-7-methyl-7,9-dihydro-8H-purin-8-one] | 6.83 |
| COc1cc(C(=O)N(C)CC2CCN(C(C)C)C2)ccc1Nc1ncc2c(n1)n(C1CCCC1)c(=O)n2C (stereo not shown) [Example 53, 4-[(9-Cyclopentyl-7-methyl-8-oxo-8,9-dihydro-7H-purin-2-yl)-amino]-N-[(1-isopropylpyrrolidin-3-yl)methyl]-3-methoxy-N-methylbenzamide] | 6.64 |
| COc1cc(C(=O)N2CCC(N3CCCC3)CC2)ccc1Nc1ncc2c(n1)n(C1CCCC1)c(=O)n2C [Example 56, 9-Cyclopentyl-2-({2-methoxy-4-[(4-pyrrolidin-1-ylpiperidin-1-yl)-carbonyl]phenyl}amino)-7-methyl-7,9-dihydro-8H-purin-8-one] | 7.17 |
| COc1cc(C(=O)NC2CCC(N(C)C)CC2)ccc1Nc1ncc2c(n1)n(C1CCCC1)c(=O)n2C (stereo not shown) [Example 58] | 6.87 |
| COCCN1CCC(NC(=O)c2ccc(Nc3ncc4c(n3)n(C3CCCC3)c(=O)n4C)c(OC)c2)CC1 [Example 59, 4-[(9-Cyclopentyl-7-methyl-8-oxo-8,9-dihydro-7H-purin-2-yl)-amino]-3-methoxy-N-[1-(2-methoxyethyl)piperidin-4-yl]benzamide] | 7.13 |
| CCN1CCCC1CNC(=O)c1ccc(Nc2ncc3c(n2)n(C2CCCC2)c(=O)n3C)c(OC)c1 (stereo not shown) [Example 60, 4-[(9-Cyclopentyl-7-methyl-8-oxo-8,9-dihydro-7H-purin-2-yl)-amino]-N-[(1-ethylpyrrolidin-2-yl)methyl]-3-methoxybenzamide] | 6.94 |
| COc1cc(C(=O)NCCCCN2CCCC2)ccc1Nc1ncc2c(n1)n(C1CCCC1)c(=O)n2C [Example 66, 4-[(9-Cyclopentyl-7-methyl-8-oxo-8,9-dihydro-7H-purin-2-yl)-amino]-3-methoxy-N-(4-pyrrolidin-1-ylbutyl)benzamide] | 6.88 |
| COc1cc(C(=O)NCCN(C)C)ccc1Nc1ncc2c(n1)n(C1CCCC1)c(=O)n2C [Example 67, 4-[(9-Cyclopentyl-7-methyl-8-oxo-8,9-dihydro-7H-purin-2-yl)-amino]-N-[2-(dimethylamino)ethyl]-3-methoxybenzamide] | 6.92 |

More lines, in order of rising pIC50, values ahead:

| pIC50 | SMILES |
| --- | --- |
| 7.18 | COc1cc(C(=O)NCCN2CCCCC2)ccc1Nc1ncc2c(n1)n(C1CCCC1)c(=O)n2C [Example 63, 4-[(9-Cyclopentyl-7-methyl-8-oxo-8,9-dihydro-7H-purin-2-yl)-amino]-3-methoxy-N-(2-piperidin-1-ylethyl)benzamide] |
| 7.21 | COc1cc(C(=O)NCCN2CCN(C)CC2)ccc1Nc1ncc2c(n1)n(C1CCCC1)c(=O)n2C [Example 64, 4-[(9-Cyclopentyl-7-methyl-8-oxo-8,9-dihydro-7H-purin-2-yl)-amino]-3-methoxy-N-[2-(4-methylpiperazin-1-yl)ethyl]benzamide] |
| 7.22 | COc1cc(C(=O)N2CCN(C)CC2)ccc1Nc1ncc2c(n1)n(C1CCCC1)c(=O)n2C [Example 50, 9-Cyclopentyl-2-({2-methoxy-4-[(4-methylpiperazin-1-yl)carbonyl]-phenyl}amino)-7-methyl-7,9-dihydro-8H-purin-8-one] |
| 7.27 | COc1cc(C(=O)NCCCCN(C)C)ccc1Nc1ncc2c(n1)n(C1CCCC1)c(=O)n2C [Example 61, 4-[(9-Cyclopentyl-7-methyl-8-oxo-8,9-dihydro-7H-purin-2-yl)-amino]-N-[4-(dimethylamino)butyl]-3-methoxybenzamide] |
| 7.29 | COc1cc(C(=O)NCCCN(C)C)ccc1Nc1ncc2c(n1)n(C1CCCC1)c(=O)n2C [Example 62, 4-[(9-Cyclopentyl-7-methyl-8-oxo-8,9-dihydro-7H-purin-2-yl)-amino]-N-[3-(dimethylamino)propyl]-3-methoxybenzamide] |
| 7.39 | COc1cc(C(=O)NCCCn2ccnc2)ccc1Nc1ncc2c(n1)n(C1CCCC1)c(=O)n2C [Example 52, 4-[(9-Cyclopentyl-7-methyl-8-oxo-8,9-dihydro-7H-purin-2-yl)-amino]-N-[3-(1H-imidazol-1-yl)propyl]-3-methoxybenzamide] |
| 7.44 | COc1cc(C(=O)N(C)CCCN(C)C)ccc1Nc1ncc2c(n1)n(C1CCCC1)c(=O)n2C [Example 54, 4-[(9-Cyclopentyl-7-methyl-8-oxo-8,9-dihydro-7H-purin-2-yl)-amino]-N-[3-(dimethylamino)propyl]-3-methoxy-N-methylbenzamide] |
| 7.45 | COCCN1CCN(C(=O)c2ccc(Nc3ncc4c(n3)n(C3CCCC3)c(=O)n4C)c(OC)c2)CC1 [Example 57, 9-Cyclopentyl-2-[(2-methoxy-4-{[4-(2-methoxyethyl)piperazin-1-yl]-carbonyl}phenyl)amino]-7-methyl-7,9-dihydro-8H-purin-8-one] |
| 7.57 | COc1cc(C(=O)N(C)C)ccc1Nc1ncc2c(n1)n(C1CCCC1)c(=O)n2C [Example 65, 4-[(9-Cyclopentyl-7-methyl-8-oxo-8,9-dihydro-7H-purin-2-yl)-amino]-3-methoxy-N,N-dimethylbenzamide] |
| 7.76 | COc1cc(C(=O)N2CC[C@@H](N(C)C)C2)ccc1Nc1ncc2c(n1)n(C1CCCC1)c(=O)n2C [Example 55, 9-Cyclopentyl-2-[(4-{[(3R)-3-(dimethylamino)pyrrolidin-1-yl]-carbonyl}-2-methoxyphenyl)amino]-7-methyl-7,9-dihydro-8H-purin-8-one] |
